Laboratory results taken from US9833497B2, “Human originated EGF domain proteins and use of the same” (CHENGDU SOURCEBIO LIMITED-LIABILITY COMPANY, priority 2013, dated 2017).

system: E. coli BL21; test: MIC against Gram-negative bacteria: E. coli BL21; format: cell-based; conditions: E. coli BL21; 10 h cultivation at 37° C.; 5×10^5 CFU/mL
Outline: (§1)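 Antibacterial activity of purified human EGF domain proteins: two-fold concentration series, triplicate wells, LB broth, 5×10^5 CFU/mL bacteria, 37° C shaking incubation. The lowest concentration without growth defines the MIC.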

Substance | MIC (μg/mL) E. coli BL21
PRT866 (CQCHGHAARCAARARPPRCHCRHHTTGPGCESCRPSHRDWPWRPATPRHPHPCLP; listed as Homo sapiens) | 12.5 µg/mL
PRT149 (LSNICLSHPCLNGQCIDTVSGYFCKCDSGWTGVNCT; listed as Homo sapiens) | 12.5 µg/mL
PRT844 (CRCNRHSECAGVGARDHCLLCRNHTKGSHCEQCLPLFVGSAVGGGTCRP; listed as Homo sapiens) | 25 µg/mL
PRT756 (KIDYCASSNHGCQHECVNTDDSYSCHCLKGFTLNPDKKTCR; listed as Homo sapiens) | 25 µg/mL

system: Proteus vulgaris; test: MIC against Gram-negative bacteria: Proteus vulgaris; format: cell-based; conditions: P. vulgaris; 10 h cultivation at 37° C.; 5×10^5 CFU/mL
Outline: as §1

Substance | MIC (μg/mL) P. vulgaris
PRT866 (CQCHGHAARCAARARPPRCHCRHHTTGPGCESCRPSHRDWPWRPATPRHPHPCLP; listed as Homo sapiens) | 25 µg/mL
PRT149 (LSNICLSHPCLNGQCIDTVSGYFCKCDSGWTGVNCT; listed as Homo sapiens) | 12.5 µg/mL
PRT844 (CRCNRHSECAGVGARDHCLLCRNHTKGSHCEQCLPLFVGSAVGGGTCRP; listed as Homo sapiens) | 12.5 µg/mL
PRT756 (KIDYCASSNHGCQHECVNTDDSYSCHCLKGFTLNPDKKTCR; listed as Homo sapiens) | 50 µg/mL

system: Aeromonas hydrophila; test: MIC against Gram-negative bacteria: Aeromonas hydrophila; format: cell-based; conditions: A. hydrophila; 10 h cultivation at 37° C.; 5×10^5 CFU/mL
Outline: as §1

Substance | MIC (μg/mL) A. hydrophila
PRT866 (CQCHGHAARCAARARPPRCHCRHHTTGPGCESCRPSHRDWPWRPATPRHPHPCLP; listed as Homo sapiens) | 12.5 µg/mL
PRT149 (LSNICLSHPCLNGQCIDTVSGYFCKCDSGWTGVNCT; listed as Homo sapiens) | 25 µg/mL
PRT844 (CRCNRHSECAGVGARDHCLLCRNHTKGSHCEQCLPLFVGSAVGGGTCRP; listed as Homo sapiens) | 12.5 µg/mL
PRT756 (KIDYCASSNHGCQHECVNTDDSYSCHCLKGFTLNPDKKTCR; listed as Homo sapiens) | 50 µg/mL

system: Pseudomonas aeruginosa; test: MIC against Gram-negative bacteria: Pseudomonas aeruginosa; format: cell-based; conditions: P. aeruginosa; 10 h cultivation at 37° C.; 5×10^5 CFU/mL
Outline: as §1

Substance | MIC (μg/mL) P. aeruginosa
PRT866 (CQCHGHAARCAARARPPRCHCRHHTTGPGCESCRPSHRDWPWRPATPRHPHPCLP; listed as Homo sapiens) | 25 µg/mL
PRT149 (LSNICLSHPCLNGQCIDTVSGYFCKCDSGWTGVNCT; listed as Homo sapiens) | 12.5 µg/mL
PRT844 (CRCNRHSECAGVGARDHCLLCRNHTKGSHCEQCLPLFVGSAVGGGTCRP; listed as Homo sapiens) | 50 µg/mL
PRT756 (KIDYCASSNHGCQHECVNTDDSYSCHCLKGFTLNPDKKTCR; listed as Homo sapiens) | 12.5 µg/mL

system: Klebsiella pneumonia; test: MIC against Gram-negative bacteria: Klebsiella pneumonia; format: cell-based; conditions: K. pneumonia; 10 h cultivation at 37° C.; 5×10^5 CFU/mL
Outline: as §1

Substance | MIC (μg/mL) K. pneumonia
PRT866 (CQCHGHAARCAARARPPRCHCRHHTTGPGCESCRPSHRDWPWRPATPRHPHPCLP; listed as Homo sapiens) | 12.5 µg/mL
PRT149 (LSNICLSHPCLNGQCIDTVSGYFCKCDSGWTGVNCT; listed as Homo sapiens) | 25 µg/mL
PRT844 (CRCNRHSECAGVGARDHCLLCRNHTKGSHCEQCLPLFVGSAVGGGTCRP; listed as Homo sapiens) | 12.5 µg/mL
PRT756 (KIDYCASSNHGCQHECVNTDDSYSCHCLKGFTLNPDKKTCR; listed as Homo sapiens) | 50 µg/mL

system: Serratia marcescens; test: MIC against Gram-negative bacteria: Serratia marcescens; format: cell-based; conditions: S. marcescens; 10 h cultivation at 37° C.; 5×10^5 CFU/mL
Outline: as §1

Substance | MIC (μg/mL) S. marcescens
PRT866 (CQCHGHAARCAARARPPRCHCRHHTTGPGCESCRPSHRDWPWRPATPRHPHPCLP; listed as Homo sapiens) | 12.5 µg/mL
PRT149 (LSNICLSHPCLNGQCIDTVSGYFCKCDSGWTGVNCT; listed as Homo sapiens) | 12.5 µg/mL
PRT844 (CRCNRHSECAGVGARDHCLLCRNHTKGSHCEQCLPLFVGSAVGGGTCRP; listed as Homo sapiens) | 25 µg/mL
PRT756 (KIDYCASSNHGCQHECVNTDDSYSCHCLKGFTLNPDKKTCR; listed as Homo sapiens) | 12.5 µg/mL

system: Enterobacter cloacae; test: MIC against Gram-negative bacteria: Enterobacter cloacae; format: cell-based; conditions: E. cloacae; 10 h cultivation at 37° C.; 5×10^5 CFU/mL
Outline: as §1

Substance | MIC (μg/mL) E. cloacae
PRT866 (CQCHGHAARCAARARPPRCHCRHHTTGPGCESCRPSHRDWPWRPATPRHPHPCLP; listed as Homo sapiens) | 12.5 µg/mL
PRT149 (LSNICLSHPCLNGQCIDTVSGYFCKCDSGWTGVNCT; listed as Homo sapiens) | 12.5 µg/mL
PRT844 (CRCNRHSECAGVGARDHCLLCRNHTKGSHCEQCLPLFVGSAVGGGTCRP; listed as Homo sapiens) | 50 µg/mL
PRT756 (KIDYCASSNHGCQHECVNTDDSYSCHCLKGFTLNPDKKTCR; listed as Homo sapiens) | 12.5 µg/mL

system: Proteus mirabilis; test: MIC against Gram-negative bacteria: Proteus mirabilis; format: cell-based; conditions: P. mirabilis; 10 h cultivation at 37° C.; 5×10^5 CFU/mL
Outline: as §1

Substance | MIC (μg/mL) P. mirabilis
PRT866 (CQCHGHAARCAARARPPRCHCRHHTTGPGCESCRPSHRDWPWRPATPRHPHPCLP; listed as Homo sapiens) | 12.5 µg/mL
PRT149 (LSNICLSHPCLNGQCIDTVSGYFCKCDSGWTGVNCT; listed as Homo sapiens) | 12.5 µg/mL
PRT844 (CRCNRHSECAGVGARDHCLLCRNHTKGSHCEQCLPLFVGSAVGGGTCRP; listed as Homo sapiens) | 12.5 µg/mL
PRT756 (KIDYCASSNHGCQHECVNTDDSYSCHCLKGFTLNPDKKTCR; listed as Homo sapiens) | 12.5 µg/mL

system: E. coli DH5α; test: Antibacterial activity: MIC and growth curve against E. coli DH5α in 96-well plate; format: cell-based; conditions: minimal inhibitory concentration against E. coli DH5α; 96-well plate, 5×10^5 CFU/mL, 37° C., judged after 8 h
Outline: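 Log-phase bacteria (OD600 ~0.5) resuspended in LB at 5×10^5 CFU/mL, exposed to recombinant protein at 50, 25, 12.5 μg/mL final in triplicate, 37 °C shaking at 175 rpm. OD600 read every 30 min; MIC is lowest concentration showing no growth.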

Substance | MIC
PRT866 (CQCHGHAARCAARARPPRCHCRHHTTGPGCESCRPSHRDWPWRPATPRHPHPCLP; listed as Homo sapiens) | 25 µg/mL
PRT149 (LSNICLSHPCLNGQCIDTVSGYFCKCDSGWTGVNCT; listed as Homo sapiens) | 12.5 µg/mL
PRT844 (CRCNRHSECAGVGARDHCLLCRNHTKGSHCEQCLPLFVGSAVGGGTCRP; listed as Homo sapiens) | 12.5 µg/mL
PRT756 (KIDYCASSNHGCQHECVNTDDSYSCHCLKGFTLNPDKKTCR; listed as Homo sapiens) | 12.5 µg/mL

system: Moraxella catarrhalis; test: MIC against Gram-negative bacteria: Moraxella catarrhalis; format: cell-based; conditions: M. catarrhalis; 10 h cultivation at 37° C.; 5×10^5 CFU/mL
Outline: as §1

Substance | MIC (μg/mL) M. catarrhalis
PRT866 (CQCHGHAARCAARARPPRCHCRHHTTGPGCESCRPSHRDWPWRPATPRHPHPCLP; listed as Homo sapiens) | 12.5 µg/mL
PRT149 (LSNICLSHPCLNGQCIDTVSGYFCKCDSGWTGVNCT; listed as Homo sapiens) | 25 µg/mL
PRT844 (CRCNRHSECAGVGARDHCLLCRNHTKGSHCEQCLPLFVGSAVGGGTCRP; listed as Homo sapiens) | 25 µg/mL
PRT756 (KIDYCASSNHGCQHECVNTDDSYSCHCLKGFTLNPDKKTCR; listed as Homo sapiens) | 50 µg/mL

system: Citrobacter diversus; test: MIC against Gram-negative bacteria: Citrobacter diversus; format: cell-based; conditions: C. diversus; 10 h cultivation at 37° C.; 5×10^5 CFU/mL
Outline: as §1

Substance | MIC (μg/mL) C. diversus
PRT866 (CQCHGHAARCAARARPPRCHCRHHTTGPGCESCRPSHRDWPWRPATPRHPHPCLP; listed as Homo sapiens) | 12.5 µg/mL
PRT149 (LSNICLSHPCLNGQCIDTVSGYFCKCDSGWTGVNCT; listed as Homo sapiens) | 12.5 µg/mL
PRT844 (CRCNRHSECAGVGARDHCLLCRNHTKGSHCEQCLPLFVGSAVGGGTCRP; listed as Homo sapiens) | 50 µg/mL
PRT756 (KIDYCASSNHGCQHECVNTDDSYSCHCLKGFTLNPDKKTCR; listed as Homo sapiens) | 12.5 µg/mL
